In experiment [1] the test system is Enterobacter aerogenes JCM 1235. Description: microbe, parasite or virus in culture. To be noted: for MIC: Klebsiella aerogenes, JCM1235. The format is cell-based. The procedure, abridged: (§1)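 Broth microdilution in Mueller-Hinton broth, about 10^5 CFU/mL final inoculum from log-phase cultures adjusted to McFarland 0.5. Incubated at 37° C for 16–24 h. MIC is the lowest concentration visibly inhibiting growth, from two or more independent experiments.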

Experiment [2] deals with Escherichia coli ATCC 25922. Description: microbe, parasite or virus in culture. Type of experiment: cell-based. To be noted: for MIC: Escherichia coli, ATCC25922, read-out: MIC Escherichia coli. Put shortly: as §1
For experiment [3], the system named is Staphylococcus aureus ATCC29213. Description: microbe, parasite or virus in culture. The format is cell-based. The following applies: for MIC: Staphylococcus aureus, ATCC29213, read-out: MIC Staphylococcus aureus. The procedure, abridged: as §1
For experiment [4], the system named is Staphylococcus epidermidis JCM 2414. Briefly: microbe, parasite or virus in culture. Type of experiment: cell-based. The following applies: for MIC: Staphylococcus epidermidis, JCM2414, read-out: MIC Staphylococcus epidermidis. Put shortly: as §1
For experiment [5], the system named is Klebsiella pneumoniae JCM 1662. Briefly: microbe, parasite or virus in culture. To be noted: for MIC: Klebsiella pneumoniae, JCM1662. Type of experiment: cell-based. The procedure, abridged:
as §1

The test system of experiment [6] is Pseudomonas aeruginosa ATCC 27853. Briefly: microbe, parasite or virus in culture. Type of experiment: cell-based. To be noted: for MIC: Pseudomonas aeruginosa, ATCC27853, read-out: MIC Pseudomonas aeruginosa. Put shortly:
as §1

The subject of experiment [7] is Staphylococcus aureus (S. aureus ATCC29213). Briefly: ATP assay (BacTiter-Glo) viability, Table 2. Type of experiment: cell-based. To be noted: ATCC29213, 3 h, read-out: Viability (%) S. aureus. The method, then:
(§2) The antibacterial activity of the polypeptides was measured using the ATP assay method.
(§3) Using BacTiter-Glo Microbial Cell Viability Assay kit available from PROMEGA, the antibacterial activity of the peptides was evaluated from the viability of bacteria. That is, ATP amount in viable bacteria in cases where the concentration of the peptides was 10 μg/ml, was measured using a microtiter plate or test tubes.
(§4) With respect to the strains, Staphylococcus aureus (S. aureus ATCC29213) as Gram-positive bacteria, or, alternatively, Pseudomonas aeruginosa (P. aeruginosa ATCC27853) as Gram-negative bacteria, was used. The bacteria were cultured in media for 3 to 4 hours, and thereafter absorbances at A600 were measured. Bacterial suspensions were diluted with Mueller-Hinton broth (MHB) according to McFarland #0.5. Each strain was added so as to attain about 0.5-1×10^5 CFU/mL (final concentration) in terms of Escherichia coli. Each peptide was prepared and added to a microplate or test tubes so as to attain a final concentration of […], and the bacterial suspension was added thereto. […] The plate was incubated at 37° C. for 3 hours, and the amount of ATP in the culture media was measured. Relative values were calculated by comparison with the negative control, and these values were regarded as the viability.

The test system of experiment [8] is Pseudomonas aeruginosa (P. aeruginosa ATCC27853). Briefly: ATP assay (BacTiter-Glo) viability, Table 2. The format is cell-based. To be noted: ATCC27853, 3 h, read-out: Viability (%) P. aeruginosa. As for the experimental part:
as §2, §3, §4

The test system of experiment [9] is Salmonella enteritidis IID 604.
Experiment [10] deals with Cryptococcus neoformans IFM 46660.
Where [11] appears, read: Table 4, two tests, first/second value where not identical.

Data on eleven molecules can be found in patent US8470765B2, “Polypeptides and antibacterial or antiseptic use of same” (AnGes MG, Inc., priority 2009, dated 2013).

≈ marks a conversion by molar mass, not a printed value. Where two headings read alike, the source gives them in different places. No end group written: not given here.

As to `C[C@@H](O)[C@H]1C(=O)N2C(C(=O)O)=C(S[C@@H]3CN[C@H](C(=O)N(C)C)C3)[C@H](C)[C@H]12` [meropenem, reference compound], the MIC is under 4000 µg/mL in [1] (setting [11]); 0.008 to 0.06 µg/mL (≈ 0.0209 to 0.156 µM) in experiment [2] (setting [11]); 0.03 to 0.12 µg/mL (≈ 0.0782 to 0.313 µM) in [3] (setting [11]); 0.03 to 0.12 µg/mL (≈ 0.0782 to 0.313 µM) in [4] (setting [11]); under 4000 µg/mL in experiment [5] (setting [11]); 0.25 to 1 µg/mL (≈ 0.652 to 2.61 µM) in experiment [6] (setting [11]).

On to `NC[C@H]1O[C@H](O[C@H]2[C@H](O)[C@@H](O[C@H]3O[C@H](CO)[C@@H](O)[C@H](N)[C@H]3O)[C@H](N)C[C@@H]2N)[C@H](N)C[C@@H]1O` [tobramycin, reference compound], for which the MIC is under 4000 µg/mL in experiment [1] (setting [11]); 0.25 to 1 µg/mL (≈ 0.535 to 2.14 µM) in experiment [2] (setting [11]); 0.12 to 1 µg/mL (≈ 0.257 to 2.14 µM) in experiment [3] (setting [11]); 0.12 to 1 µg/mL (≈ 0.257 to 2.14 µM) in experiment [4] (setting [11]); under 4000 µg/mL in experiment [5] (setting [11]); 0.25 to 1 µg/mL (≈ 0.535 to 2.14 µM) in experiment [6] (setting [11]). Moreover, the values for the viability at 1 µg/mL in experiment [7] and in experiment [8] were 3.6% and 1.8%, respectively.

In turn, GRLKRMGERLKRKIQKWIRW-NH2 [SRP-15] displayed an MIC Enterobacter aerogenes in experiment [1] (JCM 1235) of 16 µg/mL. For the same molecule, the MIC Escherichia coli in [2] (ATCC 25922) is 16 µg/mL. In experiment [3] (ATCC29213), the MIC Staphylococcus aureus came out at 16 µg/mL. This molecule also yielded an MIC Staphylococcus epidermidis in experiment [4] (JCM 2414) of 8 µg/mL. Besides, in experiment [5] (JCM 1662), the MIC Klebsiella pneumoniae was determined as 16 µg/mL. In addition, in experiment [6] (ATCC 27853), the MIC Pseudomonas aeruginosa turned out to be 16 µg/mL. Besides, the “MIC Salmonella Enteritidis” value in experiment [9] (setting [11]) is listed as 8/16. Also, the MIC Cryptococcus neoformans in experiment [10] (IFM 46660) is 2 µg/mL.

As to GRLKRMGKRLKRKIQKWARW-NH2 [SRP-14], in experiment [1] (setting [11]), the “MIC Enterobacter aerogenes” value was 16/32. Besides, the MIC Escherichia coli in [2] (ATCC 25922) was determined as 16 µg/mL. In addition, the MIC Staphylococcus aureus in experiment [3] (ATCC29213) is 16 µg/mL. Besides, in experiment [4] (setting [11]), the “MIC Staphylococcus epidermidis” value is on record as 8/16. Also, the “MIC Klebsiella pneumoniae” value in experiment [5] (setting [11]) is given as 16/128. The MIC Pseudomonas aeruginosa in experiment [6] (ATCC 27853) is 16 µg/mL. Moreover, the MIC Salmonella Enteritidis in experiment [9] (IID 604) was 4 µg/mL. Also, the MIC Cryptococcus neoformans in experiment [10] (IFM 46660) was found to be 1 µg/mL.

As to IFLHRLKRMRKRLKRKLRLW-OH [SRP-7], in [1] (setting [11]), the “MIC Enterobacter aerogenes” value is recorded as 16/64. This molecule came in with an MIC Escherichia coli in experiment [2] (ATCC 25922) of 32 µg/mL. The molecule further came in with an MIC Staphylococcus aureus in experiment [3] (ATCC29213) of 32 µg/mL. Further, in [4] (JCM 2414), the MIC Staphylococcus epidermidis amounted to 8 µg/mL. For the same molecule, the “MIC Klebsiella pneumoniae” value in experiment [5] (setting [11]) is listed as 16/64. Also, the “MIC Pseudomonas aeruginosa” value in experiment [6] (setting [11]) was 8/16. For the same molecule, in experiment [9] (IID 604), the MIC Salmonella Enteritidis turned out to be 4 µg/mL. This molecule also displayed an MIC Cryptococcus neoformans in experiment [10] (IFM 46660) of 2 µg/mL.

On to KLIFLHRLKRELRKRLKRKLR-NH2 [SRP-13], for which, in experiment [1] (setting [11]), the “MIC Enterobacter aerogenes” value was 16/64. The “MIC Escherichia coli” value in experiment [2] (setting [11]) is on record as 16/32. In [3] (ATCC29213), this molecule came in with an MIC Staphylococcus aureus of 32 µg/mL. In addition, in experiment [4] (setting [11]), the “MIC Staphylococcus epidermidis” value was 4/8. For the same molecule, in experiment [5] (JCM 1662), the MIC Klebsiella pneumoniae stood at 32 µg/mL. In addition, in experiment [6] (ATCC 27853), the MIC Pseudomonas aeruginosa came to 16 µg/mL. This molecule came in with an MIC Salmonella Enteritidis in experiment [9] (IID 604) of 4 µg/mL. The molecule further returned an MIC Cryptococcus neoformans in [10] (IFM 46660) of 2 µg/mL.

In the case of KLIFLRELRRLRKRLKRKLR-NH2 [SRP-16], the “MIC Enterobacter aerogenes” value in experiment [1] (setting [11]) is recorded as 16/32. Besides, in [2] (setting [11]), the “MIC Escherichia coli” value is 16/32. The same molecule registered an MIC Staphylococcus aureus in [3] (ATCC29213) of 16 µg/mL. The “MIC Staphylococcus epidermidis” value in experiment [4] (setting [11]) was 8/16. Moreover, in [5] (JCM 1662), the MIC Klebsiella pneumoniae came to 64 µg/mL. Moreover, the MIC Pseudomonas aeruginosa in experiment [6] (ATCC 27853) is 16 µg/mL. Besides, the MIC Salmonella Enteritidis in [9] (IID 604) was 4 µg/mL. In experiment [10] (IFM 46660), this molecule came in with an MIC Cryptococcus neoformans of 2 µg/mL.

In the case of “KNLRRIIRKIIHIIKKYG-NH2 [Ovispirin-1, reference compound]”, the “MIC Enterobacter aerogenes” value in experiment [1] (setting [11]) is listed as 16/32. Also, the “MIC Escherichia coli” value in [2] (setting [11]) is recorded as 8/16. The MIC Staphylococcus aureus in [3] (ATCC29213) turned out to be 16 µg/mL. Besides, the “MIC Staphylococcus epidermidis” value in experiment [4] (setting [11]) was 8/16. Moreover, in experiment [5] (setting [11]), the “MIC Klebsiella pneumoniae” value was 8/16. The “MIC Pseudomonas aeruginosa” value in experiment [6] (setting [11]) was 16/32. Besides, the MIC Salmonella Enteritidis in experiment [9] (IID 604) stood at 16 µg/mL. The “MIC Cryptococcus neoformans” value in experiment [10] (setting [11]) is 2/4.

On to LIFLHRLKRMRKRLKRKLRL-NH2 [SRP-12], for which the “MIC Enterobacter aerogenes” value in experiment [1] (setting [11]) is 32/64. The molecule further gave an MIC Escherichia coli in experiment [2] (ATCC 25922) of 32 µg/mL. The molecule also came in with an MIC Staphylococcus aureus in experiment [3] (ATCC29213) of 16 µg/mL. Also, the “MIC Staphylococcus epidermidis” value in experiment [4] (setting [11]) is 4/8. In experiment [5] (JCM 1662), this molecule gave an MIC Klebsiella pneumoniae of 128 µg/mL. In addition, the “MIC Pseudomonas aeruginosa” value in [6] (setting [11]) is 16/32. This molecule also yielded an MIC Cryptococcus neoformans in experiment [10] (IFM 46660) of 1 µg/mL.

RLKRMRKRLKRKLRLW-NH2 [SRP-17] displayed an MIC Enterobacter aerogenes in [1] (JCM 1235) of 128 µg/mL. Further, the “MIC Escherichia coli” value in [2] (setting [11]) was 16/32. Besides, the “MIC Staphylococcus aureus” value in [3] (setting [11]) was 16/32. Also, the “MIC Staphylococcus epidermidis” value in [4] (setting [11]) was 4/8. In [5] (JCM 1662), this molecule gave an MIC Klebsiella pneumoniae of 32 µg/mL. For the same molecule, in [6] (setting [11]), the “MIC Pseudomonas aeruginosa” value was 32/64. Further, in experiment [9] (IID 604), the MIC Salmonella Enteritidis worked out at 8 µg/mL. The same molecule returned an MIC Cryptococcus neoformans in [10] (IFM 46660) of 2 µg/mL.

Consider RLKRMRKRLKRKLRLWHRKRYK-NH2 [SRP-8], for which the MIC Enterobacter aerogenes in experiment [1] (JCM 1235) worked out at 64 µg/mL. Also, the “MIC Escherichia coli” value in experiment [2] (setting [11]) is 16/32. The molecule further showed an MIC Staphylococcus aureus in experiment [3] (ATCC29213) of 16 µg/mL. Besides, in [4] (setting [11]), the “MIC Staphylococcus epidermidis” value is reported as 8/16. Further, the MIC Klebsiella pneumoniae in [5] (JCM 1662) is 32 µg/mL. In experiment [6] (ATCC 27853), this molecule gave an MIC Pseudomonas aeruginosa of 16 µg/mL. Besides, the MIC Salmonella Enteritidis in experiment [9] (IID 604) was 64 µg/mL. The “MIC Cryptococcus neoformans” value in experiment [10] (setting [11]) was 1/2.

By viability is commonly meant a per cent measure of how many cells are alive, often set against a control.
